In patent publication US4687762A, “Water soluble drug complex and method for production of same” (Green Cross Corporation, priority 1984, dated 1987):
Values after ≈ are worked out from the molar mass of the structure shown. Where two headings read alike, the source gives them in different places.

Assays:
[1] = Acute toxicity (LD50) in mice; conditions: mouse, in vivo, drug
Source text: The intravenous and oral acute toxicity values (LD50) in mice of each drug-phospholipid complex of this invention were compared with those of the corresponding component drug.

[2] = Solubility in distilled water for injection; type: physicochemical; conditions: for solubility: component drug, distilled water for injection, 20° C.
[3] = Blood pressure lowering effect in dogs (Test 2); type: in vivo, dog (male mongrel dogs); conditions: intravenous
Method: (§1) The pharmacologic effect of the drug-phospholipid complex according to this invention administered by the intravenous route was compared with that of the component drug administered in the same manner using 10 aminals. Test (1): Antitumor Effect
Test (2): Blood Pressure Lowering Effect
Ten normal male mongrel dogs were intravenously administered with prostaglandin E1 and the blood pressure of each animal was measured using a catheter inserted into the carotid artery of the animal.
The blood pressure lowing ratio was calculated according to the following equation. [formula] wherein P1 represents the blood pressure after the administration and P2 represents that before the administration.

[4] = parameters: species or system rat (male Wistar); conditions: rat, in vivo, iv, 1440 min
Source text: (§2) The organ affinity of the drug-phospholipid complex according to this invention was compared with that of the component drug. […] Twenty-four hours after the administration, the degree of retention of the drug in each organ was estimated by determining the radio-activity level.

[5] = tested on: L-1210 mouse ascites tumor cells; assay: Antitumor effect, life prolongation in L-1210 inoculated mice (Test 1); type: in vivo; conditions: intravenous, 5 days, BDF1 mice
Method: as §1
Ten male BDF1 mice ([…]) were inoculated with 10^6 cells of L-1210 mouse ascites tumor cells. After 24 hours from the inoculation Sapdicomycin as a drug was administered to the animals for continuous 5 days, and the number of days in which the test animals were dead. The life prolongation ratio was calculated according to the following equation. [formula] wherein A1 represents an average survival period (day) of control group (without administration) and A2 represents that of administered group.

[6] = Oral route absorption in rats; parameters: species or system rat (male Wistar); conditions: rat, in vivo
Source text: as §2, with “oral route absorption” for “organ affinity”, “invention administered” for “invention”, “drug similarly administered.” for “drug.”

[7] = intravenous, read-out: Acute Toxicity (LD50), Intravenous Administration, Drug
[8] = oral, read-out: Acute Toxicity (LD50), Oral Administration, Drug

Molecule | LD50 [1, 7] | LD50 [1, 8] | solubility [2] | also measured
O=c1[nH]cc(F)c(=O)[nH]1 [5-Fluorouracil] | 173 mg/kg | 249 mg/kg | 13000 µg/mL (≈ 99900 µM) | –
COc1ccc2c(c1)c(CC(=O)OCC(=O)O)c(C)n2C(=O)c1ccc(Cl)cc1 [Acemetacin, acemetacin] | – | – | 400 µg/mL (≈ 962 µM) | –
COc1cccc2c1C(=O)c1c(O)c3c(c(O)c1C2=O)C[C@@](O)(C(=O)CO)C[C@@H]3O[C@H]1C[C@H](N)[C@H](O)[C@H](C)O1 [Adriamycin, adriamycin] | 9.1 mg/kg | 737 mg/kg | 7000 µg/mL (≈ 12900 µM) | –
COc1cccc2c1C(=O)c1c(O)c3c(c(O)c1C2=O)C[C@@](O)(C(C)=O)C[C@@H]3O[C@H]1C[C@H](N)[C@H](O)[C@H](C)O1 [Daunomycin, daunomycin] | 23.5 mg/kg | 271 mg/kg | 20000 µg/mL (≈ 37900 µM) | –
C[C@@H]1C[C@H]2[C@@H]3CCC4=CC(=O)C=C[C@]4(C)[C@@]3(F)[C@@H](O)C[C@]2(C)[C@@]1(O)C(=O)CO [Dexamethasone, dexamethasone] | – | – | 50 µg/mL (≈ 127 µM) | –
CC(C(=O)O)c1ccc(-c2ccccc2)c(F)c1 (centres unmarked) [Flurbiprofen, flurbiprofen] | – | – | 150 µg/mL (≈ 614 µM) | –
CCCCC[C@H](O)/C=C/[C@H]1[C@H](O)CC(=O)[C@@H]1CCCCCCC(=O)O [Prostaglandin E1, prostaglandin E1] | – | 7570 mg/kg | 70 µg/mL (≈ 197 µM) | Blood pressure lowering ratio, Drug ([3]; 0.25 mg/kg): 4.8%; Blood pressure lowering ratio, Drug ([3]; 0.5 mg/kg): 7.7%; Blood pressure lowering ratio, Drug ([3]; 1.0 mg/kg): 10.5%
spadicomycin | – | – | – | Retention in kidney, Drug [4]: 129 dpm per Gram Organ Weight; Retention in liver, Drug [4]: 585 dpm per Gram Organ Weight; Retention in tumor, Drug [4]: 3800 dpm per Gram Organ Weight; Retention in whole blood, Drug [4]: 825 dpm per Gram Organ Weight; Antitumor effect (life prolongation ratio), Drug ([5]; 2.5 mg/kg): 19%; Antitumor effect (life prolongation ratio), Drug ([5]; 5.0 mg/kg): 25%; Antitumor effect (life prolongation ratio), Drug ([5]; 10.0 mg/kg): 50%; Absorption Rate, Drug [6]: 2.0%; Solubility, Component Drug ([2]; water): 55000 µg/mL
